Measured values: patent US20080207563A1, “METHOD FOR INHIBITING PROLIFERATION OF TUMOR CELLS” (priority 2007, published 2008)

Assays:
[1] = test system: HT-29 colorectal cancer cells; test: Cell viability (MTT) assay, single agents and combinations with erlotinib; type: cell-based, human; conditions: for combination effect of the two drugs: erlotinib in the presence of low doses of MEK inhibitor, HT-29, simultaneous or sequential
Procedure: (§1) Cell respiration, as an indicator of cell viability, is measured by the reduction of 3-(4,5-Dimethylthiazol-2-yl)-2,5-diphenyltetrazolium bromide (MTT) to formazan. HT-29 cells are maintained in McCoy's 5a medium (modified) containing 10% fetal bovine serum and are seeded to 96-well microtiter dishes at 2,000 cells/well in a 100 μl volume while MDA-MB-468 cells are maintained in Dulbecco's modified Eagle's medium containing 10% fetal bovine serum and are seeded to 96-well microtiter dishes at 4,000 cells/well in a volume 100 μl. On the following day, the cells are exposed to compounds in an additional 100 μl at the indicated concentrations and cultured for 5 days. After the addition of 50 μl/well of a 5 mg/ml MTT stock in Dulbecco's phosphate-buffered saline (PBS), the cells are incubated for an additional 2.5 hours at 37° C. Thereafter, the medium is removed and 50 μl of 100% ethanol is added to each well to dissolve the formazan crystals. The conversion of MTT into formazan by viable cells is assessed by a microplate reader at 570 nm. The results are presented as a percentage of the viability of untreated cells (control), which are regarded as 100% viable.
(§2) Dose-response interactions (antagonism, additive, and synergism) of two drugs are expressed as the Fa-Cl (the fraction affected by dose-the combination index) plot using the method of Chou and Talalay described in Advances in Enzyme Regulation, Volume 22, pp. 27-55 (1984) processed by the computer software Calcusyn (BIOSOFT, Cambridge, UK). This program provides objective computerized evaluation procedures. For mutually non-exclusive drugs that have totally independent modes of action, Cl<1, =1, and >1 indicates synergism, additive effect, and antagonism, respectively. The data are supported by classic isobolograms made by the same program. The isobolograms can be generated at different effect levels, e.g., ED50, ED70 and ED90. When it is generated at ED50, if the combination data points for Fa=0.5 falls on the diagonal, an additive effect is indicated; if it falls on the lower left, synergism is indicated; and if it falls on the upper right, antagonism is indicated. If a single drug is not very effective, and an ED50 can not be achieved, the results Fa-Cl or Isobologram can not be provided. In this case, the results are shown as classic dose-effect relationship charts.

[2] = test system: MDA-MB-468 breast cancer cells; test: as above; type: cell-based, human; conditions: for growth suppression / growth inhibitory effect: single agent treatment, in vitro, MDA-MB-468
Procedure: as §1, §2

In the case of `C[C@@H](c1ccccc1)[C@@H](C(=O)Nc1ccc(I)cc1Cl)N1C(=O)N[C@H](c2ccc(OC[C@H](O)CO)cc2)C1=O` [Example 114, (2S,3S)—N-(2-Chloro-4-iodo-phenyl)-2-{(R)-4-[4-((R)-2,3-dihydroxy-propoxy)-phenyl]-2,5-dioxo-imidazolidin-1-yl}-3-phenyl-butyramide], the “combination effect of the two drugs” value [1] is reported as “synergistic effects”.
In the case of `C[C@@H](c1ccccc1)[C@@H](C(=O)Nc1ccc(I)cc1F)N1C(=O)N[C@H](c2ccc(OC[C@H](O)CO)cc2)C1=O` [Example 56, (2S,3S)-2-{(R)-4-[4-((R)-2,3-Dihydroxy-propoxy)-phenyl]-2,5-dioxo-imidazolidin-1-yl}-N-(2-fluoro-4-iodo-phenyl)-3-phenyl-butyramide], the “combination effect of the two drugs” value [1] is reported as “synergistic effects”, the “combination index (Cl) values, Isobolograms” value ([2]; combination with erlotinib, ED50, ED75, ED90, all three treatment schedules, CalcuSyn) is reported as < 0.5 and the “combination index (Cl), Fa-Cl plot” value ([2]; combination with erlotinib, Fa >40%, simultaneous or sequential addition, MTT on day 5, CalcuSyn) is reported as < 1. The “combination effect of the two drugs” value ([2]; combination with erlotinib, MDA-MB-468, simultaneous or sequential) was “synergism” and the “growth suppression / growth inhibitory effect” value [2] was “significantly less growth inhibitory effect”.
With `C#Cc1cccc(Nc2ncnc3cc(OCCOC)c(OCCOC)cc23)c1` [erlotinib, N-(3-ethynylphenyl)-6,7-bis(2-methoxyethoxy)-4-quinazolinamine, reference compound] the EC50 ([1]; Homo sapiens, single agent, HT-29, ED50 can not be reached) was > 30 µM, the “sensitivity of the cells to single agent treatment” value ([1]; single agent, HT-29 (braf mutation)) was “very resistant” and the “growth suppression / growth inhibitory effect” value [2] was “significant growth suppression”.
With `C[C@@H](c1ccccc1)[C@@H](C(=O)Nc1ccc(I)cc1F)N1C(=O)N[C@H](c2ccc(OCCO)cc2)C1=O` [Example 48, (2S,3S)—N-(2-Fluoro-4-iodo-phenyl)-2-{(R)-4-[4-(2-hydroxy-ethoxy)-phenyl]-2,5-dioxo-imidazolidin-1-yl}-3-phenyl-butyramide] the “combination effect of the two drugs” value [1] was “synergistic effects”.
